Reference: patent EP4729516A1, “S[…] DERIVATIVE, INTERMEDIATE, PREPARATION METHOD THEREFOR AND USE THEREOF” (Jiangsu NHWA Pharmaceutical Co., Ltd, priority 2023, dated 2024)
pKi: −log10 of the molar value. Where a name gives a salt, the structure may show the parent alone. Read-outs that look alike come from different tables or passages of the source.

Assays:
α2A receptor = target: T1, α2A receptor (Homo sapiens, UniProt P08913); experiment: Competitive receptor binding assay, α2A (3H-RX821002, CHO-K1-α2A membranes); conditions: for affinity for the α2A receptor / affinity α1A/2A: in words, compared with dexmedetomidine hydrochloride
T1 construct: expressed in transfected cells; host or cells: CHO-K1
T1 sequence (P08913 1-465): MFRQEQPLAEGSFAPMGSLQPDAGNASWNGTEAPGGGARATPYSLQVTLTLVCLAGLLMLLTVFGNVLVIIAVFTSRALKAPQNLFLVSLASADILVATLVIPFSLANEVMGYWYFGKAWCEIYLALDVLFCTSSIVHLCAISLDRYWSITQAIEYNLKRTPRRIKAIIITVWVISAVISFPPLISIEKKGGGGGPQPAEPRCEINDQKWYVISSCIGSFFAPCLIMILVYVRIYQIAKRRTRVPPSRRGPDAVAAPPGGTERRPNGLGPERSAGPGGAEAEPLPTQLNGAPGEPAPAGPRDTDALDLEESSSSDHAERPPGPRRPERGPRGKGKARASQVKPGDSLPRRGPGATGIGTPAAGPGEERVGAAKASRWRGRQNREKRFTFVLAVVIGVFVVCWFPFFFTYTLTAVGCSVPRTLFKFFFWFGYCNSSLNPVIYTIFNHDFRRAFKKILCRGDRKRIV
Experimental: Standard buffer (used for preparing α1A, α2A, α2B, and α2C receptor membranes): 146 mg of EDTA was weighed out, a 50 mM Tris-HCl buffer was added to reach a total volume of 1000 mL, and the pH was adjusted to 7.7 to make a final concentration of 0.5 mM for EDTA.
Test sample (compound): The theoretical sample weighing amount was calculated according to the designed concentration and the required volume. Generally, the test sample was dissolved in DMSO to an initial preparation dose of 5.0 × 10^-3 M, and the solution was sequentially diluted with DMSO to 5.0 × 10^-4 M-5.0 × 10^-9 M; the diluted DMSO solution was diluted with Buffer to a working concentration of 5.0 × 10^-5 M-5.0 × 10^-11 M; and the final concentration of DMSO in the working solution was 1% (the final concentration of DMSO in the reaction system was 0.2%). The test sample was prepared and then stored at 4 °C. After the test was completed, the test sample was discarded.
CHO-K1-α1A, CHO-K1-α2A, CHO-K1-α2B, and CHO-K1-α2C cells were taken out of a refrigerator at -80 °C, thawed naturally, and centrifuged at 2000 g at 4 °C for 10 min. The supernatant was discarded, and the pellet was collected. A buffer was added to the pellet, and the mixture was homogenized for 20-30 s and then centrifuged at 48000 g at 4 °C for 25 min. The supernatant was discarded, and the buffer was added again. The mixture was homogenized for 20-30 s and centrifuged at 48000 g at 4 °C for 25 min. The supernatant was discarded, and the pellet was collected and stored at -80 °C.
Table 1. Experimental conditions for radioactive binding
Step 1: 50 µL of a vehicle (1% DMSO) was added to a total binding tube (TB), 50 µL of a non-labeled substance (with a final concentration of 1.0 × 10^-5 M) was added to a non-specific binding tube (NB), and 50 µL of a test compound was added to each test compound tube (CB).
Step 2: 100 µL of a buffer was added to each reaction tube.
Step 3: The prepared membrane was suspended in a buffer to give a membrane suspension with a corresponding concentration for later use.
Step 4: 50 µL of the corresponding radioligand was added to each reaction tube.
Step 5: 50 µL of the membrane suspension was added to each reaction tube.
Step 6: Each reaction tube was incubated according to the incubation conditions. After the reaction was completed, the binding ligands were rapidly filtered under reduced pressure. The UniFilter GF/C plate was saturated with a 0.5% PEI solution 1 h in advance, fully washed with an ice-cold Tris-HCl buffer, filtered under vacuum, then placed into a thermostatic dryer, and dried for 30 min. The filter plate was taken out, and a MICROSCINT PS scintillation solution was added at 40 µL/well.
Step 7: The scintillation vial was put into a liquid scintillation counter for counting.
Based on the effect values of the compound samples at different concentration test points, the GraphPad Prism software was used to fit the action curves of the compound samples to the receptors, and the Ki values were calculated.

Male SD rats = experiment: Hypnotic efficacy: loss of righting reflex (LORR) in rats; assay type: in vivo; conditions: for ED50: Rattus norvegicus, tail vein injection over 10 s, sequential method; for induce sleep in rats: time to induce sleep, dose twice the ED50
Experimental: The sequential method was used to determine the ED50 (median effective dose) for the loss of righting reflex (LORR) by the compounds of the present disclosure in rats: Male SD rats, weighing 200-300 grams, were used. Each compound was dissolved in normal saline and administered via tail vein injection at an initial dose at a constant injection rate over 10 s (one rat per dose). […] This process was repeated, and the results were recorded in the AOT425 Statpm software until the software could calculate the ED50, at which point the experiment was terminated. The hypnotic efficacy of the compounds of the present disclosure was evaluated using ED50 with lower ED50 values indicating stronger efficacy.
Comparison of onset time and duration: Male SD rats, weighing 200-300 grams, were used. Each compound was dissolved in normal saline and administered via tail vein injection at a constant injection rate over 10 s, with 10 rats per group. […] The onset time and duration were recorded.
The onset time refers to the period from the completion of injection to when the rat is placed in a supine position, with the criterion for loss of righting reflex defined as the rat's inability to spontaneously revert to a prone position using its forelimbs and maintained for ≥10 s, which serves as an indicator of compound efficacy; the duration refers to the sustained period during which the rat remains in a state of losing righting reflex. The spontaneous recovery of the righting reflex in the rat is considered the cessation of the efficacy.

[1] = Ki, CHO-K1-α2A membranes, 3H-RX821002, read-out: Binding α2A
[2] = loss of righting reflex, male SD rats
[3] = in words, compared with dexmedetomidine hydrochloride, rats
[4] = loss of righting reflex, male SD rats, tail vein injection, dose twice the ED50, 10 rats per group

SMILES	pKi (α2A receptor; [1])	affinity for the α2A receptor (α2A receptor)	pKi (α2A receptor)	affinity α1A/2A (α2A receptor)	ED50 (Male SD rats; [2]) [mg/kg]	Duration (Male SD rats; [3])	hypnotic onset time (Male SD rats; [3])	Duration (Male SD rats; [4]) [S]	Onset time (Male SD rats; [4]) [S]	induce sleep in rats (Male SD rats; rats) [min]
c1cc2c(c(Cc3c[nH]cn3)c1)SCCC2 [Compound 1, 4-[1-(Thiochroman-8-yl)methyl]-1H-imidazole]	7.81	comparable	–	–	–	–	–	–	–	–
CC(c1c[nH]cn1)c1cccc2c1SCCC2 (centres unmarked) [Compound 2, 4-(1-[Thiochroman-8-yl)ethyl]-1H-imidazole]	8.11	superior	–	–	–	–	–	–	–	–
CC(c1c[nH]cn1)c1cccc2c1CC2 (centres unmarked) [Compound 3, 4-(1-(Bicyclo[4.2.0]octa-1(6),2,4-trien-2-yl)ethyl)-1H-imidazole]	–	comparable	7.54	comparable	–	–	–	–	–	–
CC(c1c[nH]cn1)c1cccc2c1CCCC2 (centres unmarked) [Compound 4, 4-(1-(5,6,7,8-Tetrahydronaphthalen-1-yl)ethyl)-1H-imidazole]	–	comparable	7.54	superior	–	–	–	–	–	–
CC(c1c[nH]cn1)c1cccc2c1C=CC2 (centres unmarked) [Compound 8, 4-[1-(1H-Inden-4-yl)ethyl]-1H-imidazole]	–	comparable	7.96	superior	0.0213	significantly shorter	comparable to or slightly longer	635.80±697.73	161.70±101.69	≤ 5
CC(c1c[nH]cn1)c1cccc2c1OCC2 (centres unmarked) [Compound 10, 4-[1-(2,3-Dihydrobenzofuran-7-yl)ethyl]-1H-imidazole]	–	superior	8.62	superior	0.0088	significantly shorter	comparable to or slightly longer	508.10±572.65	219.90±93.88	≤ 5
C[C@H](c1c[nH]cn1)c1cc(F)cc2c1C=CC2 [Compound 11-b, 4-[(1S)-1-(6-fluoro-1H-inden-4-yl)ethyl]-1H-imidazole]	–	–	6.68	–	0.0256	significantly shorter	significantly shorter	666.00±376.66	45.20±7.38	–
CC(c1c[nH]cn1)c1cccc2c1C=CC2(C)C (centres unmarked) [Compound 17, 4-[1-(1,1-Dimethyl-1H-inden-4-yl)ethyl]-1H-imidazole]	–	–	6.85	–	0.276	significantly shorter	comparable to or slightly longer	1602.50±681.51	101.80±154.86	≤ 5
C[C@H](c1c[nH]cn1)c1cccc2c1CCC2 [Compound 31-b, (S)-4-[1-(2,3-dihydro-1H-inden-4-yl)ethyl]-1H-imidazole]	–	–	7.63	–	0.0268	significantly shorter	comparable to or slightly longer	1147.78±656.35	100.44±49.16	≤ 5
CC1Cc2cccc(C(C)c3c[nH]cn3)c2O1 (centres unmarked) [Compound 32, 4-[1-(2-Methyl-2,3-dihydrobenzofuran-7-yl)ethyl]-1H-imidazole]	–	–	8.31	–	–	–	–	–	–	–
C[C@H](c1c[nH]cn1)c1cc(F)cc2c1C(=O)CC2 [Compound 38-b, (S)-7-(1-(1H-imidazol-4-yl)ethyl)-5-fluoro-2,3-dihydro-1H-inden-1-one]	6.15	–	–	–	0.032	significantly shorter	comparable to or slightly longer	228.22±158.93	102.44±52.34	≤ 5
Cc1cccc([C@H](C)c2cnc[nH]2)c1C [Dexmedetomidine hydrochloride, reference compound]	–	–	–	–	0.01	–	–	3275.10±796.79	77.80±28.56	–
